According to US8865758B2, “Pyrazolo piperidine derivatives as NADPH oxidase inhibitors” (Genkyotex SA, priority 2010, dated 2014):

target: T1, NOX (Homo sapiens, UniProt P04839); test: Amplex Red measurement of extracellular hydrogen peroxide (NOX activity) in DMSO-differentiated HL60 cells; assay type: cell-based; details: not given
T1 construct: HL60 differentiation to the neutrophil phenotype was triggered by adding Me2SO; endogenous in cells; host or cells: HL-60 cells differentiated with Me2SO (1.25% v/v, 6 days) to the neutrophil phenotype
T1 sequence (P04839 2-570 limits assumed): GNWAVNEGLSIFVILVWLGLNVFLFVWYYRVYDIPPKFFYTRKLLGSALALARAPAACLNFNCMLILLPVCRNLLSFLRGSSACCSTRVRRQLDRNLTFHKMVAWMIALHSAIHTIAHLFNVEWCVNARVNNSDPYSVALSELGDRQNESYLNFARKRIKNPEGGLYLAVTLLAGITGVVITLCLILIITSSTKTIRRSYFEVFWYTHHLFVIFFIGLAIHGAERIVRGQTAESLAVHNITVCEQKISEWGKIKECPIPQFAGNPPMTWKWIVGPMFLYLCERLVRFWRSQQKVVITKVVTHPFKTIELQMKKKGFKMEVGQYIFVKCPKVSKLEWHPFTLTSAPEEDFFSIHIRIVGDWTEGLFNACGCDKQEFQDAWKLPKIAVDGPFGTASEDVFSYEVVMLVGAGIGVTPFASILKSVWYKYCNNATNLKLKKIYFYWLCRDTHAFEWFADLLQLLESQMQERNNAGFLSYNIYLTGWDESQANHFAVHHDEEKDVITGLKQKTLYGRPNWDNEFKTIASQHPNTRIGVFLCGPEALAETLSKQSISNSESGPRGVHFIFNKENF
T1 sequence (P13498 1-195 partner): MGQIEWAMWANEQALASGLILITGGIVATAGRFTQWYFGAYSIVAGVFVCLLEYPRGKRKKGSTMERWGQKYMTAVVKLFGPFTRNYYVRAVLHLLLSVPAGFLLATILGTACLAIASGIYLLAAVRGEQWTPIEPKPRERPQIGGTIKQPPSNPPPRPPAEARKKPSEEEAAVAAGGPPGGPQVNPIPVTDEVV
Protocol: Human acute myeloid leukemia cell line HL-60 was cultured in RPMI 1640 (Invitrogen) supplemented with 10% heat-inactivated calf serum, 2 mM glutamine, 100 U/mL penicillin (Sigma), and 100 μg streptomycin (Sigma) at 37° C. under a humidified atmosphere of 5% CO2. HL60 differentiation to the neutrophil phenotype was triggered by adding Me2SO (final concentration 1.25% v/v for 6 days) to the culture medium.
Extracellular hydrogen peroxide was measured using Amplex UltraRed (Molecular Probes). Cells were trypsinized (1× Trypsin-EDTA), collected by centrifugation, and resuspended in HBSS supplemented with 1% glucose. Cells were seeded into black 96-well plates at a density of 50′000 cells in 200 μl testing buffer (HBSS 1% glucose containing 0.005 U/mL horseradish peroxidase (Roche) and 50 μM Amplex Red in the presence or absence of compounds according to the invention. As a control, DPI was included at a final concentration of 10 μM The plates were placed in the fluorescent Optima Fluorescent plate reader and kept at 37° C. during 20 min. Fluorescence was measured for […] with excitation and emission wavelengths of 544 nm and 590 nm respectively. NOX activities were expressed as % of the activity in control cells. Residual activity of DPI-treated cells was usually <10%. […]
The Table 3 below summarizes the IC50 of NOX activity as measured by Amplex Red using DMSO-differentiated HL60 cells as described above: […]

SMILES | IC50 [µM]
O=c1c2c([nH]n1Cc1ccccc1)CCN(Cc1ccc(Cl)cc1)C2 [Compound 9, 2-benzyl-5-(4-chlorobenzyl)-1,2,4,5,6,7-hexahydro-3H-pyrazolo[4,3-c]pyridin-3-one] | < 5
Cc1ccc(S(=O)(=O)N2CCc3[nH]n(Cc4cn5ccccc5n4)c(=O)c3C2)cc1 [Compound 103, 2-(imidazo[1,2-a]pyridin-2-ylmethyl)-5-[(4-methylphenyl)sulfonyl]-1,2,4,5,6,7-hexahydro-3H-pyrazolo[4,3-c]pyridin-3-one] | < 5
COc1cccc(-n2[nH]c3c(c2=O)CN(Cc2ccccc2)CC3)c1 [Compound 24, 5-benzyl-2-(3-methoxyphenyl)-1,2,4,5,6,7-hexahydro-3H-pyrazolo[4,3-c]pyridin-3-one] | < 5
CN1CCC(n2[nH]c3c(c2=O)CN(Cc2ccc(Cl)nc2)CC3)CC1 [Compound 96, 5-[(6-chloropyridin-3-yl)methyl]-2-(1-methylpiperidin-4-yl)-1,2,4,5,6,7-hexahydro-3H-pyrazolo[4,3-c]pyridin-3-one] | < 5
O=c1c2c([nH]n1Cc1ccccc1)CCN(Cc1ccccc1)C2 [Compound 12, 2,5-dibenzyl-1,2,4,5,6,7-hexahydro-3H-pyrazolo[4,3-c]pyridin-3-one] | < 5
O=c1c2c([nH]n1Cc1ccc(Cl)cc1)CCN(Cc1ccccc1)C2 [Compound 1, 5-benzyl-2-(4-chlorobenzyl)-1,2,4,5,6,7-hexahydro-3H-pyrazolo[4,3-c]pyridin-3-one] | < 5
O=c1c2c([nH]n1Cc1ccccc1)CCN(Cc1ccc(Cl)nc1)C2 [Compound 97, 2-benzyl-5-[(6-chloropyridin-3-yl)methyl]-1,2,4,5,6,7-hexahydro-3H-pyrazolo[4,3-c]pyridin-3-one] | < 5
Cn1[nH]c2c(c1=O)CN(Cc1ccccc1)CC2 [Compound 8, 5-benzyl-2-methyl-1,2,4,5,6,7-hexahydro-3H-pyrazolo[4,3-c]pyridin-3-one] | < 5
O=c1c2c([nH]n1-c1ccc(F)cc1Cl)CCN(Cc1ccccc1)C2 [Compound 2, 5-benzyl-2-(2-chloro-4-fluorophenyl)-1,2,4,5,6,7-hexahydro-3H-pyrazolo[4,3-c]pyridin-3-one] | < 5
O=c1c2c([nH]n1-c1ccc(F)cc1Cl)CCNC2 [Compound 4, 2-(2-chloro-4-fluorophenyl)-1,2,4,5,6,7-hexahydro-3H-pyrazolo[4,3-c]pyridin-3-one] | < 5
CS(=O)(=O)N1CCc2[nH]n(Cc3ccccc3)c(=O)c2C1 [Compound 102, 2-benzyl-5-(methylsulfonyl)-1,2,4,5,6,7-hexahydro-3H-pyrazolo[4,3-c]pyridin-3-one] | < 5
CN1N=C2CCN(Cc3ccc(Cl)cc3)CC2(Cc2cccnc2)C1=O (stereo not shown) [Compound 87, 5-(4-chlorobenzyl)-2-methyl-3a-(pyridin-3-ylmethyl)-2,3a,4,5,6,7-hexahydro-3H-pyrazolo[4,3-c]pyridin-3-one] | < 5
O=c1c2c([nH]n1-c1cccc(OCc3ccccc3)c1)CCN(Cc1ccccc1)C2 [Compound 3, 5-benzyl-2-[3-(benzyloxy)phenyl]-1,2,4,5,6,7-hexahydro-3H-pyrazolo[4,3-c]pyridin-3-one] | < 5

system: NOX; test: Nitroblue tetrazolium (NBT) superoxide test in cells; assay type: cell-based, human; details: DPI 10 μM, usually
Protocol: Human microglia cell line (HMC3, human microglia clone 3) (Janabi et al., 1995, Neurosci. Lett. 195:105) were cultured in MEM (Eagle's minimum essential medium) containing 10% FBS with 50 U/ml penicillin G sodium 50 μg/ml streptomycin sulfate, and incubated at 37° C. for 24 hours. IFN-γ (human IFN-γ, Roche. 11 040 596 001) was added to the culture medium for a final concentration of 10 ng/ml 24 h, before detection of O2^− formation. […]
Intracellular and extracellular superoxide was measured by a colorimetric technique using a quantitative nitroblue tetrazolium (NBT) test. SOD-inhibitable conversion of NBT to formazan, a fine blue precipitate, in the presence of superoxide anion was measured using Fluostar Optima spectrometer (BMG labtech). […] The absorption was measured at 630 nm. For calculation, the absorbance at 630 nm was normalized for each individual well. […] NOX activities were expressed as % of the activity in control cells. […]

SMILES | Residual activity of DPI-treated cells (NOX activity as % of control cells) [%]
c1ccc([I+]c2ccccc2)cc1 [DPI, Diphenyl-iodonium] | < 10

system: NOX; test: Chemiluminescence (luminol) ROS measurement in cells; assay type: cell-based, human; details: usually
Protocol: ROS was measured using the chemiluminescent probe luminol. Cells were cultured and plated as for Amplex Red except that the Amplex Red agent was replaced by 10 μg/mL luminol (Sigma 09235). Light emission was recorded continuously at 37° C. for 60 minutes using the luminescence function of the FluoStar Optima fluorescent plate reader. The mean of the four blank values was subtracted from each corrected value for each time point. NOX activities were expressed as % of the activity in control cells. Residual activity of DPI-treated cells was usually <10%.

SMILES | Residual activity of DPI-treated cells (NOX activity as % of control cells) [%]
c1ccc([I+]c2ccccc2)cc1 [DPI, Diphenyl-iodonium] | < 10

system: NOX; test: H2DCF-DA fluorescence in TGF-β stimulated HUVEC; assay type: cell-based, human; details: usually
Protocol: HUVEC are cultured in endothelial basal medium supplemented with hydrocortisone (1 μg/mL, Calbiochem), bovine brain extract (12 μg/mL), gentamicin (50 μg/mL, Calbiochem), amphotericin B (50 ng/mL, Calbiochem EGF (10 ng/mL, and 10% FCS until the fourth passage. When the fifth passage was started, cells were cultured with a lower concentration of FCS (2%) in the absence of EGF, if not indicated otherwise. All experiments were done with cells of the fifth passage. The cells were incubated with OxLDL (oxidized low-density lipoprotein) or its buffer as control for 24 h, before detection of O2^− formation.
HUVEC were plated on coverslips and made quiescent overnight in 0.5% BSA before stimulation with TGF-β. Cells were loaded for 10 minutes with 5 μM CM-H2DCF-DA in phenol-red-free medium in the dark and then treated with TGF-β (R&D Systems) in the presence or absence of compounds according to the invention. Cells were then visualized by immunofluorescence microscopy after fixation and staining of the nuclei with DAPI or examined live using confocal microscopy. DCF fluorescence was visualized at an excitation wavelength of 488 nm and emission at 515 to 540 nm. […] For calculation, the absorbance at […] was normalized to absorbance at […] for each individual well. […] NOX activities were expressed as % of the activity in control cells. […]

SMILES | Residual activity of DPI-treated cells (NOX activity as % of control cells) [%]
c1ccc([I+]c2ccccc2)cc1 [DPI, Diphenyl-iodonium] | < 10
